Assay results published in patent US8921059B2, “Method and kit for detection of guaiacol-producing bacterium” (Calpis Co., Ltd., priority 2009, dated 2014).
Entries after “also recorded” stand apart in the source; their conditions may differ.

How the values were obtained:
[1] = system: A. acidoterrestris ATCC49025; experiment: Effects of culture temperature on the detection level of colonies (Example 2); assay type: cell-based, Alicyclobacillus acidoterrestris; conditions: for number of colonies, relative value (YSG medium without any substrate at 45° C. for 3 days = 100): 75 ppm in YSG medium
Description: Effects of culture temperature on the detection level of colonies of A. acidoterrestris ATCC49025 were studied using YSG agar medium containing vanillin, vanillic acid or ferulic acid. […] The suspensions containing the same number of bacterial cells of A. acidoterrestris ATCC49025 were smeared on the plates and cultured at 45° C. or 30° C. A YSG medium without any substrate was used as a control. The values are expressed as relative values to the number of colonies obtained after cultivation at 45° C. for 3 days in a YSG medium without any substrate being regarded as 100.

[2] = system: A. acidocaldarius ATCC27009; experiment: Colony formation of thermotolerant acidophilic bacteria on YSG agar medium containing the substrate (Example 1); assay type: cell-based, Alicyclobacillus acidocaldarius; parameters: key to detected level of colonies: ++: the detected level was at or above the level of the medium without a substrate (i.e. YSG medium); +: the detected level was lower than the level of the medium without a substrate; −: undetectable; conditions: for detected level of colonies: cultivation at 45° C. for 3 days; for colonies detected: 45° C. for 3 days
Description: (§1) A YSG agar medium containing vanillin, vanillic acid or ferulic acid was used to study the colony formation of thermotolerant acidophilic bacteria (TAB). Four bacterial strains used were A. acidoterrestris ATCC49025, A. acidiphilus JCM21417, A. acidocaldarius ATCC27009 and A. pomorum JCM21459. Among these, A. acidoterrestris ATCC49025 and A. acidiphilus JCM21417 have been reported as the bacterial strains producing guaiacol. […] After cooling to about 50° C., pH was adjusted to 3.7 with 10% sulfuric acid and a plate medium was prepared. The suspensions of the respective bacterial strains were subjected to a heat-shock treatment at 70° C. for 20 min. The bacterial suspensions were serially diluted with phosphate buffered saline up to 10^3 CFU/mL and 100 μL from the dilutions was smeared on the plates for culture. Cultivation was carried out at 45° C. for 3 days before the colonies formed were visually inspected. Similar experiments were carried out with replacing vanillic acid with vanillin or ferulic acid. When the medium was not easily solidified, the amount of agar was appropriately adjusted.

A. acidiphilus JCM21417 = experiment: as above; assay type: cell-based, Alicyclobacillus acidiphilus; parameters: key to detected level of colonies: ++: the detected level was at or above the level of the medium without a substrate (i.e. YSG medium); +: the detected level was lower than the level of the medium without a substrate; −: undetectable; conditions: for detected level of colonies: cultivation at 45° C. for 3 days
Description: as §1

[3] = system: A. acidoterrestris ATCC49025; experiment: as above; assay type: cell-based, Alicyclobacillus acidoterrestris; parameters: key to detected level of colonies: ++: the detected level was at or above the level of the medium without a substrate (i.e. YSG medium); +: the detected level was lower than the level of the medium without a substrate; −: undetectable; conditions: for detected level of colonies: cultivation at 45° C. for 3 days
Description: A YSG agar medium containing vanillin, vanillic acid or ferulic acid was used to study the colony formation of thermotolerant acidophilic bacteria (TAB). Four bacterial strains used were A. acidoterrestris ATCC49025, A. acidiphilus JCM21417, A. acidocaldarius ATCC27009 and A. pomorum JCM21459. Among these, A. acidoterrestris ATCC49025 and A. acidiphilus JCM21417 have been reported as the bacterial strains producing guaiacol. A YSG medium (Merck K.K., YGS Agar; 20.0 g) and vanillic acid (Wako Pure Chemical Industries, Ltd.; 0 to 250 mg) were dissolved in 1000 g of water with heating and subjected to autoclave sterilization (121° C. and 15 min.). After cooling to about 50° C., pH was adjusted to 3.7 with 10% sulfuric acid and a plate medium was prepared. The suspensions of the respective bacterial strains were subjected to a heat-shock treatment at 70° C. for 20 min. The bacterial suspensions were serially diluted with phosphate buffered saline up to 10^3 CFU/mL and 100 μL from the dilutions was smeared on the plates for culture. Cultivation was carried out at 45° C. for 3 days before the colonies formed were visually inspected. Similar experiments were carried out with replacing vanillic acid with vanillin or ferulic acid. When the medium was not easily solidified, the amount of agar was appropriately adjusted.

A. pomorum JCM21459 = experiment: as above; assay type: cell-based, Alicyclobacillus pomorum; parameters: key to detected level of colonies: ++: the detected level was at or above the level of the medium without a substrate (i.e. YSG medium); +: the detected level was lower than the level of the medium without a substrate; −: undetectable; conditions: for detected level of colonies: cultivation at 45° C. for 3 days; for colonies detected: 45° C. for 3 days
Description: as §1

[4] = used instead of vanillic acid, concentration not given

## COc1cc(C(=O)O)ccc1O [vanillic acid]
[1]; 50 ppm
  detection sensitivity compared to the medium without any substrate: improved
[1]; 30° C., 5 days
  number of colonies, relative value (YSG medium without any substrate at 45° C. for 3 days = 100): 186
[1]; 45° C., 3 days
  number of colonies, relative value (YSG medium without any substrate at 45° C. for 3 days = 100): 183
[1]; 75 ppm in solid medium
  number of colonies at 30° C. for 5 days compared with 45° C. for 3 days: the same number of colonies is obtained; also recorded: almost the same number of colonies was detected
[1]; 75 ppm, 45° C.
  colonies detected compared to the medium without any substrate: more colonies were detected
[2]; 10 ppm in YSG agar
  detected level of colonies: ++
[2]; 50 ppm in YSG agar
  detected level of colonies: −
[2]; 75 ppm in YSG agar
  detected level of colonies: −
[2]; 75 ppm
  colonies detected: no colony was detected
[2]; 100 ppm in YSG agar
  detected level of colonies: −
[2]; 100 ppm
  colonies detected: no colony was detected
[2]; 150 ppm in YSG agar
  detected level of colonies: −
[2]; 200 ppm in YSG agar
  detected level of colonies: −
[2]; 225 ppm in YSG agar
  detected level of colonies: −
[2]; 250 ppm in YSG agar
  detected level of colonies: −
A. acidiphilus JCM21417; 10 ppm in YSG agar
  detected level of colonies: ++
A. acidiphilus JCM21417; 50 ppm in YSG agar
  detected level of colonies: ++
A. acidiphilus JCM21417; 75 ppm in YSG agar
  detected level of colonies: ++
A. acidiphilus JCM21417; 75 ppm, 45° C. for 3 days
  colonies detected compared with medium without vanillic acid: the same level or more colonies were detected as in the medium without vanillic acid
A. acidiphilus JCM21417; 100 ppm in YSG agar
  detected level of colonies: −
A. acidiphilus JCM21417; 100 ppm, 45° C. for 3 days
  colonies detected: no colony was detected
A. acidiphilus JCM21417; 150 ppm in YSG agar
  detected level of colonies: −
A. acidiphilus JCM21417; 200 ppm in YSG agar
  detected level of colonies: −
A. acidiphilus JCM21417; 225 ppm in YSG agar
  detected level of colonies: −
A. acidiphilus JCM21417; 250 ppm in YSG agar
  detected level of colonies: −
[3]; 10 ppm in YSG agar
  detected level of colonies: ++
[3]; 50 ppm in YSG agar
  detected level of colonies: ++
[3]; 75 ppm in YSG agar
  detected level of colonies: ++
[3]; 75 ppm, 45° C. for 3 days
  colonies detected compared with medium without vanillic acid: the same level or more colonies were detected as in the medium without vanillic acid
[3]; 100 ppm in YSG agar
  detected level of colonies: ++
[3]; 100 ppm, 45° C. for 3 days
  colonies detected compared with medium without vanillic acid: the same level or more colonies were detected as in the medium without vanillic acid
[3]; 150 ppm in YSG agar
  detected level of colonies: ++
[3]; 150 ppm, 45° C. for 3 days
  colonies detected compared with medium without vanillic acid: detected at the same level as in the medium without vanillic acid
[3]; 200 ppm in YSG agar
  detected level of colonies: ++
[3]; 200 ppm, 45° C. for 3 days
  colonies detected compared with medium without vanillic acid: detected at the same level as in the medium without vanillic acid
[3]; 225 ppm in YSG agar
  detected level of colonies: +
[3]; 225 ppm, 45° C. for 3 days
  detection sensitivity of AAT: lower
[3]; 250 ppm in YSG agar
  detected level of colonies: −
[3]; 250 ppm or more, 45° C. for 3 days
  colonies detected: no colonies were detected
A. pomorum JCM21459; 10 ppm in YSG agar
  detected level of colonies: ++
A. pomorum JCM21459; 50 ppm in YSG agar
  detected level of colonies: −
A. pomorum JCM21459; 75 ppm in YSG agar
  detected level of colonies: −
A. pomorum JCM21459; 75 ppm
  colonies detected: no colony was detected
A. pomorum JCM21459; 100 ppm in YSG agar
  detected level of colonies: −
A. pomorum JCM21459; 100 ppm
  colonies detected: no colony was detected
A. pomorum JCM21459; 150 ppm in YSG agar
  detected level of colonies: −
A. pomorum JCM21459; 200 ppm in YSG agar
  detected level of colonies: −
A. pomorum JCM21459; 225 ppm in YSG agar
  detected level of colonies: −
A. pomorum JCM21459; 250 ppm in YSG agar
  detected level of colonies: −

## COc1cc(C=O)ccc1O [vanillin]
[1]; 750 ppm
  detection sensitivity compared to the medium without any substrate: improved
[1]; [4]
  number of colonies at 30° C. for 5 days compared with 45° C. for 3 days: The same tendency was observed
[2]; 500 ppm in YSG agar
  detected level of colonies: −
[2]; 750 ppm in YSG agar
  detected level of colonies: −
[2]; 900 ppm in YSG agar
  detected level of colonies: −
[2]; 950 ppm in YSG agar
  detected level of colonies: −
[2]; 1000 ppm in YSG agar
  detected level of colonies: −
A. acidiphilus JCM21417; 500 ppm in YSG agar
  detected level of colonies: +
A. acidiphilus JCM21417; 750 ppm in YSG agar
  detected level of colonies: +
A. acidiphilus JCM21417; 900 ppm in YSG agar
  detected level of colonies: +
A. acidiphilus JCM21417; 950 ppm in YSG agar
  detected level of colonies: −
A. acidiphilus JCM21417; 1000 ppm in YSG agar
  detected level of colonies: −
[3]; 500 ppm in YSG agar
  detected level of colonies: ++
[3]; 750 ppm in YSG agar
  detected level of colonies: ++
[3]; 900 ppm in YSG agar
  detected level of colonies: ++
[3]; 950 ppm in YSG agar
  detected level of colonies: ++
[3]; 1000 ppm in YSG agar
  detected level of colonies: +
A. pomorum JCM21459; 500 ppm in YSG agar
  detected level of colonies: −
A. pomorum JCM21459; 750 ppm in YSG agar
  detected level of colonies: −
A. pomorum JCM21459; 900 ppm in YSG agar
  detected level of colonies: −
A. pomorum JCM21459; 950 ppm in YSG agar
  detected level of colonies: −
A. pomorum JCM21459; 1000 ppm in YSG agar
  detected level of colonies: −

## COc1cc(/C=C/C(=O)O)ccc1O [ferulic acid]
[1]; 25 ppm
  detection sensitivity compared to the medium without any substrate: improved
[1]; [4]
  number of colonies at 30° C. for 5 days compared with 45° C. for 3 days: The same tendency was observed
[2]; 25 ppm in YSG agar
  detected level of colonies: −
[2]; 50 ppm in YSG agar
  detected level of colonies: −
[2]; 75 ppm in YSG agar
  detected level of colonies: −
A. acidiphilus JCM21417; 25 ppm in YSG agar
  detected level of colonies: ++
A. acidiphilus JCM21417; 50 ppm in YSG agar
  detected level of colonies: −
A. acidiphilus JCM21417; 75 ppm in YSG agar
  detected level of colonies: −
[3]; 25 ppm in YSG agar
  detected level of colonies: ++
[3]; 50 ppm in YSG agar
  detected level of colonies: ++
[3]; 75 ppm in YSG agar
  detected level of colonies: −
A. pomorum JCM21459; 25 ppm in YSG agar
  detected level of colonies: −
A. pomorum JCM21459; 50 ppm in YSG agar
  detected level of colonies: −
A. pomorum JCM21459; 75 ppm in YSG agar
  detected level of colonies: −
